From PubChem BioAssay AID1508591
Where a SMILES comes first, the peptide text is derived from it. [ ]: non-standard residue; d: D form. ξ: configuration not given here. ξLac(3-iPr) = CC(C)CC(O)C(=O)O; NMeV = CN[CH](C(=O)O)C(C)C; NMeA = CN[CH](C)C(=O)O; βAla = NCCC(=O)O

conditions: rat; liver microsomes; pH 7.4; 15.0 min; 1.0 µM

SMILES | half-life [min]
FC1(F)CCN(c2nc(-c3ccncc3)nc3ccccc23)CC1 | 9.4
Cc1ccc(NC(=O)c2c(N3CCCC3=O)c3cc(C)ccc3n2C)c(C)c1 | 1.31
COc1ccccc1-c1nc(NCc2ccc(-c3cccnc3)cc2)c2ccccc2n1 | 4.45
O=c1n(-c2ccc(Cl)cc2)nc2n1CCN(Cc1ccc(C(F)(F)F)cc1)C2 | > 30
O=C(Cc1cccc(OC(F)(F)F)c1)Nc1ccc(CCCCc2nnc(NC(=O)Cc3ccccn3)s2)nn1 | 20.9
Cc1ccc(-c2csc(NC(=O)c3ccccc3NS(=O)(=O)c3ccc(C)cc3)n2)cc1 | 2.6
O=C(Nc1ccc(N2CCN(C(=O)c3ccccc3F)CC2)cc1)c1cncc(Br)c1 | > 30
O=C(Nc1nc2cc(C(F)(F)F)cc(NC3CC3)n2n1)c1cccnc1 | > 30
O=[S+]([O-])(Nc1ccc(-c2ccccc2)cc1)c1ccc(NCc2ccc(Cl)cc2O)cc1 | 18
Cc1ccc2c(c1)N(S(=O)(=O)c1cc(-c3onc(C)c3C)ccc1C)CCO2 | 1.56
O=C1NCc2ccc(-c3cc4c(ccn4Cc4cccnc4)c(C4=CCOCC4)n3)cc21 | 19.5
COc1cccc(CNc2ccc(S(=O)(=O)Nc3ncccn3)cc2)c1O | > 30
CCN1CCN(C(=O)CCCn2nc(C)c3c(C)n(-c4ccc(C)cc4)nc3c2=O)CC1 | 22.2
Cc1ccc(-c2[nH]n3c(=O)c4c(nc3c2C)CCCC4)cc1 | 8.72
CCOc1ccc(CCNC(=O)c2cc3c(s2)CCC3)cc1OCC | 1.6
O=C(Nc1cccc(C(F)(F)F)c1)c1cc2nc(-c3ccccc3)cc(C(F)(F)F)n2n1 | > 30
Cc1nn(CCc2nc(-c3ccc(OC(F)F)cc3)cs2)c2[nH]c(=O)cc(C(F)(F)F)c12 | 6.9

SMILES | half-life [min]
Cn1cc(S(=O)(=O)N2CCCCCC2)cc1C(=O)Nc1ccc(Cl)c(C(F)(F)F)c1 | 5.98
CCOC(=O)CCNc1cc(N2CCc3ccccc3CC2)nc(-c2cccnc2)n1 | 2.31
COc1cccc(CNc2ccc(S(=O)(=O)Nc3cccc(N4CCNCC4)c3)cc2)c1O | > 30
CCC(C)C1NC(=O)C2CCCN2C(=O)C(CC(C)C)OC(=O)CCNC(=O)C(C)N(C)C(=O)C(C(C)C)N(C)C1=O (centres undefined) (cyclo([ξLac(3-iPr)]PI[NMeV][NMeA][βAla]); configuration not given here) | 18.1
CCOC(=O)c1nc(Nc2ccc(N3CCC(C)CC3)cc2)c2ccccc2n1 | 1.62
C[C@@H]1C(=O)O[C@H]2[C@H]1CC[C@@]1(C)Cc3sc(NS(=O)(=O)Cc4ccccc4)nc3[C@@H](C)[C@H]21 | 1.69
COc1ccnc(NC(=S)N2CCN(c3cc(C(F)(F)F)cc(C(F)(F)F)c3)CC2)c1 | > 30
CCN(CC)S(=O)(=O)c1ccc(N2CCOCC2)c(NC(=O)c2[nH]c(C)c(C(C)=O)c2C)c1 | 5.49
CCN1CCCC1CNCc1ccccc1 (centres undefined) | 2.5
Cc1ccc(S(=O)(=O)N(C)c2ccccc2C(=O)Nc2nc(-c3ccccc3)cs2)cc1 | 1.7
COc1ccc(-c2ccc(Nc3nc(-c4ccncc4)nc4ccccc34)cc2F)cc1F | 11
CCS(=O)(=O)c1ncc(N(Cc2ccc(F)cc2)Cc2ccco2)c(C(=O)Nc2cc(C)ccc2C)n1 | 3.51
CCOc1ccc(CCNC(=O)c2cc3cccnc3n2Cc2cccc(C)n2)cc1OCC | 1.7
CC1CCN(S(=O)(=O)c2ccc3c(c2)C(C)(C)C(=O)N3CC(=O)NCc2ccco2)CC1 | 1.8
CC(=O)N1CCc2c(sc3c2c(=O)n(-c2ccccc2)c(=O)n3Cc2cccc(C(F)(F)F)c2)C1 | 25
CCN(CC)C(=O)c1coc(COc2ccc3c(c2)C(c2cccc(F)c2)N(C(=O)C(C)C)CC3)n1 (centres undefined) | 1.28
Cc1ccc(S(=O)(=O)Nc2cnccc2C(=O)Nc2nc(-c3cccnc3)cs2)cc1 | 7.7

Further lines, results first:

half-life [min] | SMILES
5.8 | CNc1oc(-c2ccccc2-c2ccccc2)nc1C#N
9.65 | CNc1oc(-c2cccc(Cl)c2Cl)nc1C#N
13 | COc1ccc2[nH]c(=O)c(-c3noc(-c4cccs4)n3)cc2c1
26 | COc1ccccc1C(=O)Nc1nc2nc(C)cc(=O)n2[nH]1
17 | CNc1oc(-c2cccc3ccccc23)nc1C(=O)Nc1cccc(C#N)c1
6.16 | Cc1ccc(NC(=O)c2cc(-c3ccc[nH]3)n[nH]2)cc1F
3.31 | CC1=Nc2cc(C(=O)NC3CCCC3)ccc2Sc2ccc(C)cc21
6.38 | COc1cc(Cl)c(C)cc1NC(=O)CSc1ncc(S(=O)(=O)c2ccc(C(C)(C)C)cc2)c(=O)[nH]1
18 | CC(=O)Nc1nc(-c2ccc3c(c2)CCN3C(=O)c2ccccc2C)c(C)s1
> 30 | O=C(NC[C@H]1Cn2c(-c3ccc(Cl)cc3)cnc2CO1)C1CCCC1
8.55 | Cc1cc(S(=O)(=O)Nc2cnccc2C(=O)Nc2nc(-c3ccccc3)cs2)c(C)o1
4.1 | Oc1ccc(CNc2cccc(F)c2)c2cccnc12
2.31 | COc1ccccc1C(=O)NC1CCCc2c1[nH]c1c(Cl)cccc21 (centres undefined)
20.4 | CCn1ncc(NC(=O)Cn2ncc3cc(-c4cccc(OC)c4)ccc32)n1
23.8 | Nc1nc2c(s1)C(c1c(Cl)cccc1Cl)CC(=O)N2 (centres undefined)
